Earlier results as cited in PMC11696226 (Nature Communications, 2025).
Like-named read-outs stand apart in the source and are kept apart here.

Test system: metastatic TNBC / breast cancer

Compound	median OS (ASCENT, metastatic TNBC) [months]	median PFS (ASCENT, metastatic TNBC, ≥2 lines of chemotherapy) [months]	HR for OS vs conventional chemotherapy (ASCENT, p < 0.001)	HR for PFS vs conventional chemotherapy (ASCENT, p < 0.001)	median OS (TNBC, pooled EMBRACE and Study 301) [month]	median PFS (TNBC, pooled EMBRACE and Study 301, 199 patients) [month]
SG: antibody-drug conjugate	12.1	5.6	0.48	0.41	–	–
C=C1C[C@@H]2CC[C@@]34C[C@H]5O[C@H]6[C@@H](O3)[C@H]3O[C@H](CC[C@@H]3O[C@H]6[C@H]5O4)CC(=O)C[C@@H]3[C@@H](OC)[C@@H](C[C@H](O)CN)O[C@H]3C[C@H]3O[C@@H](CC[C@@H]1O2)C[C@@H](C)C3=C [eribulin]	–	–	–	–	12.4	2.8
